Experimental data taken from patent EP4467141A1, “PYRAZOLO-QUINOLINES AS SELECTIVE INHIBITORS OF GENOTOXIC STRESS-INDUCED IKK/NF- KB PATHWAYS FOR CANCER THERAPY” (Max-Delbrück-Centrum für Molekulare Medizin in der …, priority 2023, dated 2024).

Key:
Experiment in all cases: Kinase panel study
Format in all cases: biochemical
Details in all cases: read-out: Percentage of inhibition; for inhibition at 1 µM: 1000nM; for inhibition at 10 µM: 10000nM
[1] = target: T1, ROCK2 (Homo sapiens, UniProt O75116)
T1 construct: purchased Thermo Fisher Scientific
In short: (§1)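 ZLyte/Adapta biochemical kinase assays, standard operating procedures; % inhibition at 1 µM or 10 µM test compound; IC50 determined in panel.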

[2] = target: T2, KIT T670I (Homo sapiens, UniProt P10721, T670I)
T2 construct: purchased Thermo Fisher Scientific
In short: as §1

[3] = target: T3, SGK (SGK1) (Homo sapiens, UniProt O00141)
T3 construct: purchased Thermo Fisher Scientific
T3 sequence (O00141 1-431): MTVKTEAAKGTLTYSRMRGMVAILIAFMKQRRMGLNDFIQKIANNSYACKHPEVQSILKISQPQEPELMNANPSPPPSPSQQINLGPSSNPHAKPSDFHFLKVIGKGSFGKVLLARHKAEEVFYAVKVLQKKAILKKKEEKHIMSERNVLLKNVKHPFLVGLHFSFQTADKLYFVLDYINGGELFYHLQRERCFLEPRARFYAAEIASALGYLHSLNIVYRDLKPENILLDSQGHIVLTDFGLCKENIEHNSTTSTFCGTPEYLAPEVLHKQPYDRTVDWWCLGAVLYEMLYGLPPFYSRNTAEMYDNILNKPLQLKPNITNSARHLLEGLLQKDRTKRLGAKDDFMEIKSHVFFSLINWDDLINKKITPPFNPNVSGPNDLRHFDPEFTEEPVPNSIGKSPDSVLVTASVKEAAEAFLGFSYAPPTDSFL
In short: as §1

[4] = target: T4, EPHB1 (Homo sapiens, UniProt P54762)
T4 construct: purchased Thermo Fisher Scientific
T4 sequence (P54762 18-984): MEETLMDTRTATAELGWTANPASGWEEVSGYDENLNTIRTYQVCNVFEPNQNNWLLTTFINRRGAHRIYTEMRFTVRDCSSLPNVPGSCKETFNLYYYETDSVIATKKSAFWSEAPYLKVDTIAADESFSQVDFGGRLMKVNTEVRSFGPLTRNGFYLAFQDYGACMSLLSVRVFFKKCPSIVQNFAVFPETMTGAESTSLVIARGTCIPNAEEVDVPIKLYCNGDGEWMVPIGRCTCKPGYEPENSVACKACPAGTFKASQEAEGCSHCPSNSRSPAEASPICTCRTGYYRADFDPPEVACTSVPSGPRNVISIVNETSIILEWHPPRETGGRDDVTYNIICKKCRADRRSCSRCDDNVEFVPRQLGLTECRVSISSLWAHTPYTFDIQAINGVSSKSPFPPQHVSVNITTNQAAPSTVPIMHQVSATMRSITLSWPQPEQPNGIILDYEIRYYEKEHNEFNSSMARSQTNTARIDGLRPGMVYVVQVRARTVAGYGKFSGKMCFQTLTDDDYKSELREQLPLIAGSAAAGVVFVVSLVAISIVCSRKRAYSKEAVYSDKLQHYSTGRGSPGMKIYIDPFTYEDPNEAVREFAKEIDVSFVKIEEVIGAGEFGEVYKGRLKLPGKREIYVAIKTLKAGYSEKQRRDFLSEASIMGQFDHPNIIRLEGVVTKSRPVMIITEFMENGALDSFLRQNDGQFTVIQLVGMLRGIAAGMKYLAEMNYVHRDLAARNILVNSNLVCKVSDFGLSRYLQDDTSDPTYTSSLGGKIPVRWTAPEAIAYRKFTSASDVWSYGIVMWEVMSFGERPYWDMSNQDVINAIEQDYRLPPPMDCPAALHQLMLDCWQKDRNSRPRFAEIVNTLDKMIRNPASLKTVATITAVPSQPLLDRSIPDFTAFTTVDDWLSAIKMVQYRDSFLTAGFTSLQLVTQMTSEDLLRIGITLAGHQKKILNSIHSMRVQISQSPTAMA
In short: as §1

[5] = target: T5, PIK3C2B (PI3K-C2 beta) (Homo sapiens, UniProt O00750)
T5 construct: purchased Thermo Fisher Scientific
In short: as §1

[6] = target: T6, INSR (Homo sapiens, UniProt P06213)
T6 construct: purchased Thermo Fisher Scientific
In short: as §1

[7] = target: T7, JAK2 JH1 JH2 V617F (Homo sapiens, UniProt O60674, V617F)
T7 construct: JAK2 JH1 JH2 V617F; purchased Thermo Fisher Scientific
In short: as §1

[8] = target: T8, AURKB (Aurora B) (Homo sapiens, UniProt Q96GD4)
T8 construct: purchased Thermo Fisher Scientific
In short: as §1

[9] = target: T9, LYN A (Homo sapiens, UniProt P07948)
T9 construct: purchased Thermo Fisher Scientific
In short: as §1

T8 sequence (Q96GD4 whole entry): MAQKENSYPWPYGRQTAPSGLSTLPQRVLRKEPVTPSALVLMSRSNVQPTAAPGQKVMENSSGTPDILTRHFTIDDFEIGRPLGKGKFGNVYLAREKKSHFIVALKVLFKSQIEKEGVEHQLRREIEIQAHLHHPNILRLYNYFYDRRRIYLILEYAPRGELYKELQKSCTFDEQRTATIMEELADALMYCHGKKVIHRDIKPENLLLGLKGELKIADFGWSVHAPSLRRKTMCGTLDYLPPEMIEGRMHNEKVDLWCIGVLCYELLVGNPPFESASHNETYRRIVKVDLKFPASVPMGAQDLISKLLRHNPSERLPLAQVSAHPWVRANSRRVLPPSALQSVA
T1 sequence (O75116 whole entry): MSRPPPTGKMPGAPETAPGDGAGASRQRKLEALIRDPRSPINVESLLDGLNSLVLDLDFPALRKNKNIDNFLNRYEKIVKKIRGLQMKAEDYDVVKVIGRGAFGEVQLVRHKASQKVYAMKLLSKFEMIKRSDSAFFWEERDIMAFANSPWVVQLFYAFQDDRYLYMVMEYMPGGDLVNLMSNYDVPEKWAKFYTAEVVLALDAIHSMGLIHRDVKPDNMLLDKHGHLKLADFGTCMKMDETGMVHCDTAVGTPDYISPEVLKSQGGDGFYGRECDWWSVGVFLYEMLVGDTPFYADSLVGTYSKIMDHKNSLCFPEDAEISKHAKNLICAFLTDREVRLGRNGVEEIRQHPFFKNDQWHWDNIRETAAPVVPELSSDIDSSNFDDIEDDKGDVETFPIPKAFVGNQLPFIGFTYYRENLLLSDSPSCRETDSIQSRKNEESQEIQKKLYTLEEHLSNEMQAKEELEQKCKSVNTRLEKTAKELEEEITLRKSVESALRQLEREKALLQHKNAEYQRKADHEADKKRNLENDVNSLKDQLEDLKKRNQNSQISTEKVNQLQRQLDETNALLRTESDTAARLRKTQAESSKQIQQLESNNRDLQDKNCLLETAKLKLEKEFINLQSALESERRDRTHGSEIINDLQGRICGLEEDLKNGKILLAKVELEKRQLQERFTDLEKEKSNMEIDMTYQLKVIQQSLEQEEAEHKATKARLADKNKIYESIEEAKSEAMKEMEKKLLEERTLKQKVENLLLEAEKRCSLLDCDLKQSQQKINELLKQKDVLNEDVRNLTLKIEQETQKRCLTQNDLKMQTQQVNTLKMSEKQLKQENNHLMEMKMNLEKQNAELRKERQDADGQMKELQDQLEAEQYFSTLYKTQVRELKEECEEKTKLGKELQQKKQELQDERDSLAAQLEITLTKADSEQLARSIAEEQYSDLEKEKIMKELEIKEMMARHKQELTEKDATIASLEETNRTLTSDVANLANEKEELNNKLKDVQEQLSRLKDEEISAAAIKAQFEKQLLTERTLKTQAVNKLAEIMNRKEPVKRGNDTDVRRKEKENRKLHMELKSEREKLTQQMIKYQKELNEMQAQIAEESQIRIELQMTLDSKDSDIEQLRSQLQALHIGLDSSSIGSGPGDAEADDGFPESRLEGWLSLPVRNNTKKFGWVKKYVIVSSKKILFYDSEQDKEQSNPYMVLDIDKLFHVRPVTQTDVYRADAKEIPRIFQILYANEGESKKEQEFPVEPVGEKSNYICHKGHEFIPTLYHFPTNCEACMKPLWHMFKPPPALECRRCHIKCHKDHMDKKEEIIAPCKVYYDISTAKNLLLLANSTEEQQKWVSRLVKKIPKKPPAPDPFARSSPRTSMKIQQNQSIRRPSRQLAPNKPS
T9 sequence (P07948 whole entry): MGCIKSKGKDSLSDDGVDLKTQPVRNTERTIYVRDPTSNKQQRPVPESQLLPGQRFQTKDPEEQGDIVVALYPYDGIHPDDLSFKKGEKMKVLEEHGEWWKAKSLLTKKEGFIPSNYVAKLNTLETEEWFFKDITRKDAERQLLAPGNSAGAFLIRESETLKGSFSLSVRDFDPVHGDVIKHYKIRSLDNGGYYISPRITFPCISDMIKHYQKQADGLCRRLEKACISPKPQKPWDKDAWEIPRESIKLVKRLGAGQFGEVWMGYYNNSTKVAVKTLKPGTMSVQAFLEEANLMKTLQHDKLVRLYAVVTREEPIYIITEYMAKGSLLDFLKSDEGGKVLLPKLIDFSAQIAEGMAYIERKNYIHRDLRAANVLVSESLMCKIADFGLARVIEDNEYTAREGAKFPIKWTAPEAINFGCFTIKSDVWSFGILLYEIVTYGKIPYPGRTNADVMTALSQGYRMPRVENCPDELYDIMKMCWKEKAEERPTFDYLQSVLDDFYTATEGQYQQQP
T6 sequence (P06213 28-1382): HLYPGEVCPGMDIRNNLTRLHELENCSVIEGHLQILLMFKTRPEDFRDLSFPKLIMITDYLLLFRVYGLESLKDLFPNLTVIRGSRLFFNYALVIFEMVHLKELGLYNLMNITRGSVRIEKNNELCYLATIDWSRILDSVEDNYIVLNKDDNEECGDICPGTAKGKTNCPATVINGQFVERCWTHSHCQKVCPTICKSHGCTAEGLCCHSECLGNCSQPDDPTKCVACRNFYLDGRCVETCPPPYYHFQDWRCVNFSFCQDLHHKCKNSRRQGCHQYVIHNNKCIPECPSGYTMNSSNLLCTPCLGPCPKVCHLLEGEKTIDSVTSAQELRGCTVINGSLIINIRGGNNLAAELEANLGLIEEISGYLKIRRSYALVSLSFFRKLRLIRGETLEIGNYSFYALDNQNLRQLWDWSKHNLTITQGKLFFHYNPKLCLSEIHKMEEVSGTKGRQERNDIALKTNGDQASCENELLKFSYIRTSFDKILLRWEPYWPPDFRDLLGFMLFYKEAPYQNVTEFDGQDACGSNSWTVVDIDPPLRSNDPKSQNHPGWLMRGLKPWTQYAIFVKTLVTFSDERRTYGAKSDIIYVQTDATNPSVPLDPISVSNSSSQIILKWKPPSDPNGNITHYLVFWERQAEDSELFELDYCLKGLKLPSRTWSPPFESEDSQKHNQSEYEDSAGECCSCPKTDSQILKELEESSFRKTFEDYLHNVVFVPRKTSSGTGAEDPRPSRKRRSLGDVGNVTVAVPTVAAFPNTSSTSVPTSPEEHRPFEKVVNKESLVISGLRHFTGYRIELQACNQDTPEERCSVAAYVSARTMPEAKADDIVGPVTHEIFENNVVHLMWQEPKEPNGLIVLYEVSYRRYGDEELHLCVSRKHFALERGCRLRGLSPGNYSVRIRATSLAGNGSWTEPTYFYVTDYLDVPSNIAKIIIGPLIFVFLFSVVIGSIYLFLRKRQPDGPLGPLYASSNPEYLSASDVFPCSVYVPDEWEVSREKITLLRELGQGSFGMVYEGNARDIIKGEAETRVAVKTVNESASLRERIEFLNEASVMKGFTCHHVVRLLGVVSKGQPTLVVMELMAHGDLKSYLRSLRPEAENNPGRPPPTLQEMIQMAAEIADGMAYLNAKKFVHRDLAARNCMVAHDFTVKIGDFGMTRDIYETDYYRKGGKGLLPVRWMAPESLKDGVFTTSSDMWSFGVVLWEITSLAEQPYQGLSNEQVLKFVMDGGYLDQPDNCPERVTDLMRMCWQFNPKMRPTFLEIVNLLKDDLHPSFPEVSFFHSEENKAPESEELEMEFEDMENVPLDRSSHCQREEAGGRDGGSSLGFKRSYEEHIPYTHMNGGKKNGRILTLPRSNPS
T2 sequence (P10721 26-976 T670I): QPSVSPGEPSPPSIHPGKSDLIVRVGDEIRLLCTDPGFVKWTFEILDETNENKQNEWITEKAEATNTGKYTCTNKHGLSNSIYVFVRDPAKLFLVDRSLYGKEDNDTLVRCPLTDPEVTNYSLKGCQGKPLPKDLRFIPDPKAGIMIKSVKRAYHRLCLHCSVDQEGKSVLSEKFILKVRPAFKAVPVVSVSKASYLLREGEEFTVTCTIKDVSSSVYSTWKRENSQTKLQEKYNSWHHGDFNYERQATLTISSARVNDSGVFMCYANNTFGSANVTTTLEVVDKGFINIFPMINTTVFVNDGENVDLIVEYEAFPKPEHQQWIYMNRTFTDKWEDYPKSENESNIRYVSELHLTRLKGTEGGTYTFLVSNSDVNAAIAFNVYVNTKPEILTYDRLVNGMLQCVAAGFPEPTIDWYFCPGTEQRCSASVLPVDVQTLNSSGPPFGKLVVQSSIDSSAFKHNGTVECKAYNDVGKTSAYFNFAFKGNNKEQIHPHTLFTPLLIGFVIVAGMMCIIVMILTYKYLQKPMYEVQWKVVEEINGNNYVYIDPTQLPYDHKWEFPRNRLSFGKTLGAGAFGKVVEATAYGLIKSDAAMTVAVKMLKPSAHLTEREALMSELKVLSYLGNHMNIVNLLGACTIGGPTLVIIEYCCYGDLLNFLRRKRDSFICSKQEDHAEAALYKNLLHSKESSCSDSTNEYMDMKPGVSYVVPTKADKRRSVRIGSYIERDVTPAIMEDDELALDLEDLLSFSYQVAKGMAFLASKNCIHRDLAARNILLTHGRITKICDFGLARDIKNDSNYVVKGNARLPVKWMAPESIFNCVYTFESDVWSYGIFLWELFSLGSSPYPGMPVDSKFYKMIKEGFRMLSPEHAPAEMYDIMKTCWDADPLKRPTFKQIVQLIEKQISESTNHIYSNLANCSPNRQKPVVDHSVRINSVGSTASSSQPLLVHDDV

| SMILES | inhibition at 1 µM [1] | inhibition at 10 µM [1] | inhibition at 1 µM [2] | inhibition at 10 µM [2] | inhibition at 1 µM [3] | inhibition at 10 µM [3] | inhibition at 1 µM [4] | inhibition at 10 µM [4] | inhibition at 1 µM [5] | inhibition at 10 µM [5] | inhibition at 1 µM [6] | inhibition at 10 µM [6] | inhibition at 1 µM [7] | inhibition at 10 µM [7] | inhibition at 1 µM [8] | inhibition at 10 µM [8] | inhibition at 1 µM [9] | inhibition at 10 µM [9] |
| --- | --- | --- | --- | --- | --- | --- | --- | --- | --- | --- | --- | --- | --- | --- | --- | --- | --- | --- |
| COc1ccc2c(c1OC)c(=O)n1c3ccc(O)cc3c3ccnc2c31 [MW01, 5-Hydroxy-10,11-dimethoxy-9H-benzo[c]indolo[3,2,1-ij][1,5]naphthyridin-9-one] | 14% | 18% | 1% | 13% | -4% | 15% | -3% | 9% | 53% | 68% | 1% | 11% | 15% | 29% | 15% | 19% | 5% | 18% |
| COc1ccc2cc3c(N)nn(C(=O)c4cccc(N(C)C)c4)c3nc2c1 [MW05, (3-Amino-7-methoxypyrazolo[3,4-b]quinolin-1-yl)-[3-(dimethylamino)phenyl]methanone] | 14% | 4% | -1% | -13% | -2% | -12% | -3% | -6% | 2% | 12% | 8% | -7% | 1% | -28% | 8% | -6% | 1% | -6% |
